Reference: patent US7847065B2, “CXADRL1 polypeptides relating to human cancers” (Oncotherapy Science, Inc., priority 2002, dated 2010)
Where two headings read alike, the source gives them in different places. Ends that are not written are not given here. Peptide text beside a SMILES is read from it.

Tests used:
T2 cells (HLA-A*0201) [1] = tested on: T2 cells (HLA-A*0201)
Experimental: (§3) Target cells were labeled with 100 μCi of Na2^51CrO4 (Perkin Elmer Life Sciences) for 1 h at 37° C. in a CO2 incubator. When peptide-pulsed targets were used, target cells were incubated with the addition of 20 μg/ml of the peptide for 16 h at 37° C. before the labeling with Na2^51CrO4. Target cells were rinsed and mixed with effectors at a final volume of 0.2 ml in round-bottom microtiter plates. The plates were centrifuged (4 minutes at 800×g) to increase cell-to-cell contact and placed in a CO2 incubator at 37° C. After 4 h of incubation, 0.1 ml of the supernatant was collected from each well and the radioactivity was determined with a gamma counter. In case of evaluating cytotoxicity against target cells that endogenously express RNF43, CXADRL1, or GCUD1, the cytolytic activity was tested in the presence of a 30-fold excess of unlabeled K562 cells to reduce any non-specific lysis due to NK-like effectors. […] The MHC restriction was examined by blocking assay, measuring the inhibition of the cytotoxicity with anti-HLA-class I (W6/32) antibody and anti-HLA-class II antibody, or anti-CD4 antibody and anti-CD8 antibody (DAKO).
(§4) The percentage of specific cytotoxicity was determined by calculating the percentage of specific ^51Cr-release by the following formula: {(cpm of the test sample release−cpm of the spontaneous release)/(cpm of the maximum release−cpm of the spontaneous release)}×100. Spontaneous release was determined by incubating the target cells alone in the absence of effectors, and the maximum release was obtained by incubating the targets with 1N HCl. All determinants were done in duplicate, and the standard errors of the means were consistently below 10% of the value of the mean.

SNU475 = assay: Cytotoxicity of CTLs against tumor cell line SNU475; format: cell-based, human; conditions: SNU475 expresses CXADRL1, GCUD1 and HLA-A*0201
Experimental: as §3, §4

[2] = tested on: MKN-1 gastric cancer cells; assay: MTT assay after transfection of S-oligonucleotides, MKN-1; format: cell-based, human; conditions: MKN-1 cells, six days after transfection
Experimental: (§1) Cells plated onto 10-cm dishes (2×10^5 cells/dish) were transfected either with plasmid, or synthetic S-oligonucleotides of CXADRL1, GCUD1, or RNF43 using LIPOFECTIN Reagent (GIBCO BRL). Then the cells were cultured with the addition of an appropriate concentration of geneticin for six to twelve days. The cells were then fixed with 100% methanol and stained by Giemsa solution. Sequences of the S-oligonucleotides were as follows:
(§2) Cells plated at a density of 5×10^5 cells/100 mm dish were transfected in triplicate with sense or antisense S-oligonucleotides designated to suppress the expression of CXADRL1, GCUD1, or RNF43. […] Subsequently, the cells were lysed by the addition of 1 ml of 0.01 N HCl/10% SDS and the absorbance of lysates was measured with ELISA plate reader at a test wavelength of 570 nm (reference, 630 nm). The cell viability was represented by the absorbance compared to that of control cells.

SNU475 cells = assay: Blocking assay with antibodies, target SNU475; format: cell-based, human
Experimental: as §3

MKN74 = assay: Cytotoxicity of CTL clone against tumor cell line MKN74; format: cell-based, human; conditions: expresses CXADRL1 but not HLA-A*0201
Experimental: (§5) Target cells were labeled with 100 μCi of Na2^51CrO4 (Perkin Elmer Life Sciences) for 1 h at 37° C. in a CO2 incubator. When peptide-pulsed targets were used, target cells were incubated with the addition of 20 μg/ml of the peptide for 16 h at 37° C. before the labeling with Na2^51CrO4. Target cells were rinsed and mixed with effectors at a final volume of 0.2 ml in round-bottom microtiter plates. The plates were centrifuged (4 minutes at 800×g) to increase cell-to-cell contact and placed in a CO2 incubator at 37° C. After 4 h of incubation, 0.1 ml of the supernatant was collected from each well and the radioactivity was determined with a gamma counter. In case of evaluating cytotoxicity against target cells that endogenously express RNF43, CXADRL1, or GCUD1, the cytolytic activity was tested in the presence of a 30-fold excess of unlabeled K562 cells to reduce any non-specific lysis due to NK-like effectors. […]
(§6) The percentage of specific cytotoxicity was determined by calculating the percentage of specific ^51Cr-release by the following formula: {(cpm of the test sample release−cpm of the spontaneous release)/(cpm of the maximum release−cpm of the spontaneous release)}×100. Spontaneous release was determined by incubating the target cells alone in the absence of effectors, and the maximum release was obtained by incubating the targets with 1N HCl. […]

SNU-C4 = assay: Cytotoxicity of CTL clone against tumor cell line SNU-C4; conditions: HLA-A*0201 but not CXADRL1; RNF43 but little HLA-A24
Experimental: as §5, §6

T2 cells (HLA-A*0201) [3] = assay: 51Cr-release cytotoxicity assay of peptide-induced CTLs on T2 cells; conditions: for Cytotoxic activity of peptide-induced CTL line/clone on non-pulsed target: T2 not pulsed with any peptide; for Cytotoxic activity of peptide-induced CTL line/clone on peptide-pulsed target: T2 pulsed with the peptide
Experimental: as §3, §4

MKN-28 cells = assay: MTT assay after transfection of S-oligonucleotides, MKN-28; format: cell-based, human; conditions: six days after transfection
Experimental: as §1, §2

MKN45 = assay: Cytotoxicity of CTL clone against tumor cell line MKN45; format: cell-based, human; conditions: expresses GCUD1 but not HLA-A*0201
Experimental: as §5, §6

Experimental for DLD-1: as §5, §6
Experimental for HT29: as §3, §4
Experimental for TISI cells (HLA-A24/24): as §3, §4

## ALWPWLLMA [RNF43-11, ALWPWLLMA]
DLD-1
  Cytotoxic activity of CTL clone on DLD-1: high cytotoxic activity
HT29
  Cytotoxic activity of CTL clone on HT29: no significant cytotoxic activity

## LLGPSRSAV [RNF43-358, LLGPSRSAV]
T2 cells (HLA-A*0201) [1]
  Cytotoxicity(%) ×2 Pep(+): 0.0%
  Cytotoxicity(%) ×2 Pep(−): −0.8%
  Cytotoxicity(%) ×20 Pep(+): −0.4%
  Cytotoxicity(%) ×20 Pep(−): −0.7%

## LFNLQKSSL [RNF43-639, LFNLQKSSL]
TISI cells (HLA-A24/24)
  Cytotoxic activity of peptide-induced CTL line/clone on peptide-pulsed target: higher cytotoxic activities
  Cytotoxicity of CTL lines (9mer) ×2 Pep(+): 7%
  Cytotoxicity of CTL lines (9mer) ×2 Pep(−): 5%
  Cytotoxicity of CTL lines (9mer) ×20 Pep(+): 42%
  Cytotoxicity of CTL lines (9mer) ×20 Pep(−): 33%

## SYQEPGRRL [RNF43-331, SYQEPGRRL]
TISI cells (HLA-A24/24)
  Cytotoxicity of CTL lines (9mer) ×2 Pep(+): 0%
  Cytotoxicity of CTL lines (9mer) ×2 Pep(−): 0%
  Cytotoxicity of CTL lines (9mer) ×20 Pep(+): 2%
  Cytotoxicity of CTL lines (9mer) ×20 Pep(−): 1%

## KMDAEHPEV [GCUD1-9V, KMDAEHPEV]
SNU475
  Cytotoxic activity of peptide-induced CTLs against SNU475: killed

## KLMEFVYKN [RNF43-171, KLMEFVYKN]
T2 cells (HLA-A*0201) [1]
  Cytotoxicity(%) ×2 Pep(+): 1.1%
  Cytotoxicity(%) ×2 Pep(−): −0.5%
  Cytotoxicity(%) ×20 Pep(+): 2.6%
  Cytotoxicity(%) ×20 Pep(−): 0.0%

## KMDPTGKLNL [RNF43-54, KMDPTGKLNL]
TISI cells (HLA-A24/24)
  Cytotoxic activity of peptide-induced CTL line/clone on peptide-pulsed target: modest cytotoxic activity
  Cytotoxicity of CTL lines (10mer) ×2 Pep(+): 0%
  Cytotoxicity of CTL lines (10mer) ×2 Pep(−): −1%
  Cytotoxicity of CTL lines (10mer) ×20 Pep(+): 5%
  Cytotoxicity of CTL lines (10mer) ×20 Pep(−): 2%

## RAPRPCLSL [RNF43-114, RAPRPCLSL]
TISI cells (HLA-A24/24)
  Cytotoxicity of CTL lines (9mer) ×2 Pep(+): 6%
  Cytotoxicity of CTL lines (9mer) ×2 Pep(−): 9%
  Cytotoxicity of CTL lines (9mer) ×20 Pep(+): 23%
  Cytotoxicity of CTL lines (9mer) ×20 Pep(−): 26%

## WLHQHRTCPL [RNF43-302, WLHQHRTCPL]
T2 cells (HLA-A*0201) [1]
  Cytotoxicity(%) ×2 Pep(+): 1.5%
  Cytotoxicity(%) ×2 Pep(−): 2.2%
  Cytotoxicity(%) ×20 Pep(+): 7.4%
  Cytotoxicity(%) ×20 Pep(−): 6.1%

## 5′-TGCAACACCTACAGAA-3′ (phosphorothioate, further chemistry not given here) [CXADRL1-AS5, antisense S-oligonucleotide]
[2]
  Viable cells (MTT assay) compared with control S-oligonucleotides: markedly fewer

## HYTPSVAYPW [RNF43-683, HYTPSVAYPW]
TISI cells (HLA-A24/24)
  Cytotoxicity of CTL lines (10mer) ×2 Pep(+): 0%
  Cytotoxicity of CTL lines (10mer) ×2 Pep(−): −1%
  Cytotoxicity of CTL lines (10mer) ×20 Pep(+): 0%
  Cytotoxicity of CTL lines (10mer) ×20 Pep(−): 0%

## GFGRTGLVL [RNF43-24, GFGRTGLVL]
TISI cells (HLA-A24/24)
  Cytotoxicity of CTL lines (9mer) ×2 Pep(+): 1%
  Cytotoxicity of CTL lines (9mer) ×2 Pep(−): 2%
  Cytotoxicity of CTL lines (9mer) ×20 Pep(+): 8%
  Cytotoxicity of CTL lines (9mer) ×20 Pep(−): 9%

## KLNLTLEGV [RNF43-60, KLNLTLEGV]
T2 cells (HLA-A*0201) [1]
  Cytotoxicity(%) ×2 Pep(+): −1.6%
  Cytotoxicity(%) ×2 Pep(−): 0.0%
  Cytotoxicity(%) ×20 Pep(+): −2.1%
  Cytotoxicity(%) ×20 Pep(−): 0.2%

## SYCTERSGYL [RNF43-449, SYCTERSGYL]
TISI cells (HLA-A24/24)
  Cytotoxicity of CTL lines (10mer) ×2 Pep(+): 0%
  Cytotoxicity of CTL lines (10mer) ×2 Pep(−): 0%
  Cytotoxicity of CTL lines (10mer) ×20 Pep(+): 1%
  Cytotoxicity of CTL lines (10mer) ×20 Pep(−): 1%

## ALSSGLYQC [CXADRL1-207, ALSSGLYQC]
SNU475 cells
  Cytotoxicity of CTL clone against SNU475 with anti-HLA-Class I antibody and anti-CD8 antibody: significantly inhibited
MKN74
  Cytotoxic activity of CTL clone against MKN74: not against
SNU-C4
  Cytotoxic activity of CTL clone against SNU-C4: not against
T2 cells (HLA-A*0201) [3]
  Cytotoxic activity of peptide-induced CTL line/clone on non-pulsed target: without showing any cytotoxic activity
  Cytotoxic activity of peptide-induced CTL line/clone on peptide-pulsed target: very potent cytotoxic activity
SNU475
  Cytotoxic activity of peptide-induced CTLs against SNU475: potent cytotoxic activity

## TFCSSLSSDF [RNF43-496, TFCSSLSSDF]
TISI cells (HLA-A24/24)
  Cytotoxicity of CTL lines (10mer) ×2 Pep(+): 0%
  Cytotoxicity of CTL lines (10mer) ×2 Pep(−): 0%
  Cytotoxicity of CTL lines (10mer) ×20 Pep(+): 8%
  Cytotoxicity of CTL lines (10mer) ×20 Pep(−): 9%

## 5′-CAGCCATCCTGAAAAG-3′ (phosphorothioate, further chemistry not given here) [GCUD1-AS5, antisense S-oligonucleotide]
MKN-28 cells
  Viable cells (MTT assay) compared with control S-oligonucleotides: markedly fewer

## GLTWPVVLI [RNF43-156, GLTWPVVLI]
T2 cells (HLA-A*0201) [1]
  Cytotoxicity(%) ×2 Pep(+): −0.5%
  Cytotoxicity(%) ×2 Pep(−): −0.3%
  Cytotoxicity(%) ×20 Pep(+): −0.4%
  Cytotoxicity(%) ×20 Pep(−): 0.7%

## LMQSHPLYL [RNF43-82, LMQSHPLYL]
T2 cells (HLA-A*0201) [1]
  Cytotoxicity(%) ×2 Pep(+): 0.0%
  Cytotoxicity(%) ×2 Pep(−): −0.4%
  Cytotoxicity(%) ×20 Pep(+): 1.7%
  Cytotoxicity(%) ×20 Pep(−): 1.2%

## KLMQSHPLYL [RNF43-81, KLMQSHPLYL]
T2 cells (HLA-A*0201) [1]
  Cytotoxicity(%) ×2 Pep(+): 6.3%
  Cytotoxicity(%) ×2 Pep(−): 8.3%
  Cytotoxicity(%) ×20 Pep(+): 18.0%
  Cytotoxicity(%) ×20 Pep(−): 27.6%
TISI cells (HLA-A24/24)
  Cytotoxic activity of peptide-induced CTL line/clone on peptide-pulsed target: modest cytotoxic activity
  Cytotoxicity of CTL lines (10mer) ×2 Pep(+): 2%
  Cytotoxicity of CTL lines (10mer) ×2 Pep(−): −3%
  Cytotoxicity of CTL lines (10mer) ×20 Pep(+): 10%
  Cytotoxicity of CTL lines (10mer) ×20 Pep(−): 5%

## ALSSGLYQV [CXADRL1-9V, ALSSGLYQV]
SNU475
  Cytotoxic activity of peptide-induced CTLs against SNU475: killed

## YLLGPSRSAV [RNF43-357, YLLGPSRSAV]
T2 cells (HLA-A*0201) [1]
  Cytotoxicity(%) ×2 Pep(+): 3.7%
  Cytotoxicity(%) ×2 Pep(−): 3.0%
  Cytotoxicity(%) ×20 Pep(+): 18.2%
  Cytotoxicity(%) ×20 Pep(−): 15.4%

## KMDAEHPEL [GCUD1-196, KMDAEHPEL]
SNU475 cells
  Cytotoxicity of CTL clone against SNU475 with anti-HLA-Class I antibody and anti-CD8 antibody: significantly inhibited
MKN45
  Cytotoxic activity of CTL clone against MKN45: not against
T2 cells (HLA-A*0201) [3]
  Cytotoxic activity of peptide-induced CTL line/clone on non-pulsed target: without showing any cytotoxic activity
  Cytotoxic activity of peptide-induced CTL line/clone on peptide-pulsed target: very potent cytotoxic activity
SNU475
  Cytotoxic activity of peptide-induced CTLs against SNU475: potent cytotoxic activity

## ALWPWLLMAT [RNF43-11, ALWPWLLMAT]
T2 cells (HLA-A*0201) [1]
  Cytotoxic activity of peptide-induced CTL line/clone on peptide-pulsed target: higher cytotoxic activity
DLD-1
  Cytotoxic activity of CTL clone on DLD-1: high cytotoxic activity
HT29
  Cytotoxic activity of CTL clone on HT29: no significant cytotoxic activity

## RYQASCRQA [RNF43-247, RYQASCRQA]
TISI cells (HLA-A24/24)
  Cytotoxicity of CTL lines (9mer) ×2 Pep(+): 28%
  Cytotoxicity of CTL lines (9mer) ×2 Pep(−): 16%
  Cytotoxicity of CTL lines (9mer) ×20 Pep(+): 71%
  Cytotoxicity of CTL lines (9mer) ×20 Pep(−): 82%

## WLLMATLQA [RNF43-15, WLLMATLQA]
T2 cells (HLA-A*0201) [1]
  Cytotoxicity(%) ×2 Pep(+): −0.4%
  Cytotoxicity(%) ×2 Pep(−): −0.9%
  Cytotoxicity(%) ×20 Pep(+): −0.2%
  Cytotoxicity(%) ×20 Pep(−): 0.0%

## RAPGEQQRL [RNF43-397, RAPGEQQRL]
TISI cells (HLA-A24/24)
  Cytotoxicity of CTL lines (9mer) ×2 Pep(+): 15%
  Cytotoxicity of CTL lines (9mer) ×2 Pep(−): 15%
  Cytotoxicity of CTL lines (9mer) ×20 Pep(+): 41%
  Cytotoxicity of CTL lines (9mer) ×20 Pep(−): 32%

## 5′-CTACTCACCGTGCAGA-3′ (phosphorothioate, further chemistry not given here) [CXADRL1-AS4, antisense S-oligonucleotide]
[2]
  Viable cells (MTT assay) compared with control S-oligonucleotides: markedly fewer

## CC(C)C[C@H](NC(=O)[C@@H](N)CS)C(=O)N[C@@H](Cc1c[nH]cn1)C(=O)N[C@@H](CCC(=O)O)C(=O)N[C@@H](Cc1ccccc1)C(=O)N[C@@H](Cc1c[nH]cn1)C(=O)N[C@@H](CCCNC(=N)N)C(=O)N[C@@H](CC(N)=O)C(=O)N[C@@H](CS)C(=O)N[C@H](C(=O)O)C(C)C [RNF43-290, CLHEFHRNCV] (H-CLHEFHRNCV-OH)
T2 cells (HLA-A*0201) [1]
  Cytotoxicity(%) ×2 Pep(+): 2.7%
  Cytotoxicity(%) ×2 Pep(−): 3.7%
  Cytotoxicity(%) ×20 Pep(+): 9.6%
  Cytotoxicity(%) ×20 Pep(−): 9.7%

## FLTTASGVSV [GCUD1-272, FLTTASGVSV]
T2 cells (HLA-A*0201) [3]
  Cytotoxic activity of peptide-induced CTL line/clone on non-pulsed target: without showing any cytotoxic activity
  Cytotoxic activity of peptide-induced CTL line/clone on peptide-pulsed target: very potent cytotoxic activity

## 5′-CGGCTTACCTCAACCT-3′ (phosphorothioate, further chemistry not given here) [GCUD1-AS8, antisense S-oligonucleotide]
MKN-28 cells
  Viable cells (MTT assay) compared with control S-oligonucleotides: markedly fewer

## RPPRPGPFL [RNF43-368, RPPRPGPFL]
TISI cells (HLA-A24/24)
  Cytotoxicity of CTL lines (9mer) ×2 Pep(+): 0%
  Cytotoxicity of CTL lines (9mer) ×2 Pep(−): 0%
  Cytotoxicity of CTL lines (9mer) ×20 Pep(+): 1%
  Cytotoxicity of CTL lines (9mer) ×20 Pep(−): 0%
